Converted amounts (≈) assume the structure as drawn.
Tests used:
[1] = tested on: Matrix Metalloproteinase-3 (MMP-3); experiment: Inhibition of MMP-3 production in IL-1β induced A549 cells (ELISA); assay type: cell-based; conditions: 10 ng/mL IL-1β induced A549 human lung tumor cells, 24 h, supernatant ELISA
Description: A549 cells were induced with 10 ng/ml human IL-1β in absence or presence of different concentrations of LI/DD-II/054A/01 for 24 h as indicated. Secreted MMP-3 concentration in the cell free culture supernatants was measured using MMP-3 ELISA Development Kit (R&D System, Minneapolis, Minn., USA). The MMP-3 concentration in culture supernatants was estimated quantitatively from the standard curve generated using known concentrations of MMP-3. Percentage of MMP-3 inhibition at each concentration of test compound was calculated from the formula: {(Conc. of MMP-3 in IL-1β induced−Conc. of MMP-3 in the test well)×100}÷Conc. of MMP-3 in IL-1β induced wells.
MMP-3 was evaluated in Interleukin-1β induced human lung tumor cell line A549. Briefly, the cells were cultured in DMEM with 2 mM Glutamine, 100 U/mL penicillin, […] streptomycin and 10% fetal bovine serum (Hyclone, Logan, Utah). Five thousand cells per well were seeded into a 96-well cell culture plate (Corning, USA) one day before the experiment. The culture media was replaced with fresh DMEM containing 10% fetal bovine serum. […] The MMP-3 concentration in culture supernatant was estimated quantitatively by interpolating the optical densities into the standard curve generated from known concentrations of MMP-3. […]

[2] = tested on: 3T3-L1 mouse pre-adipocyte cells; experiment: Inhibition of lipid accumulation in differentiated adipocytes (Oil Red O); assay type: cell-based; conditions: Mus musculus; at 0.5 μg/ml; 3T3-L1 (Table I)
Description: The inhibition of fat accumulation in the treated cells was compared with the mock treated differentiated adipocytes and percentage inhibition was measured.
One hundred thousand 3T3-L1 […] pre-adipocyte cells in Dulbecco's Modified Eagles Medium (DMEM) containing 10% Fetal Bovine Serum (FBS) were taken into each well of a 24-well plate and incubated for 48 h at 37° C. and 5% CO2. The differentiation of pre-adipocyte cells was initiated in a differentiation medium containing 10 μg/ml insulin, 1.0 μM dexamethasone, and 0.5 mM isobutylmethylxanthine (IBMX) for 48 h. After this the medium was replaced by DMEM containing 10 μg/ml insulin and incubated for 3 days. Then the differentiating cells were treated 10 μg/ml of Sphaeranthus indicus ethyl acetate extract (LI/DD-II/054A/01) and 0.5 μg/ml of 7-hydroxyfrullanolide (LI054A01) and maintained in the medium for another 3-5 days. The cells incubated with 0.1% DMSO were considered as the vehicle control. After the incubation period, cells were washed with phosphate buffered saline (PBS) and fixed with 10% buffered formalin for 1 h at room temperature. One small aliquot of cell suspension was separated for cell counting in hemocytometer chamber. Fixed cells were stained with Oil Red O solution to measure the cellular neutral lipid accumulation. Briefly, cells were washed with PBS, fixed with 10% buffered formalin and stained with Oil Red O solution (0.5 g in 100 ml isopropanol) for 10 min. After removing the staining solution, the dye retained in the cells will be eluted into isopropanol and OD measured at 550 nm. The inhibition of fat accumulation in the treated cells was compared with the mock treated differentiated adipocytes. The treated and control cells were also analyzed and compared for inhibition of lipid accumulation visually under microscope and recorded digitally in suitable image capture system. The anti-adipogenic activities shown by Sphaeranthus Indicus ethyl acetate extract (LI/DD-II/054A/01) and LIO054A01 are summarized in the following table.

C=C1C(=O)O[C@H]2C3=C(C)CCC[C@]3(C)CC[C@@]12O [LI054A01, 7-α-hydroxy-4,11(13)-eudesmadien-12,6-olide]
IC50 against MMP-3 [1]: 0.075 µg/mL (≈ 0.302 µM) | inhibition at 0.5 µg/mL [2]: 68.7%
